Test results from patent US10064873B2, “Compounds and compositions for treating HIV with derivatives of Betulin” (GlaxoSmithKline LLC, priority 2011, dated 2018).

tested on: HIV NL4-3 wt; experiment: MT4 antiviral assay, NL4-3 strain wild type; format: cell-based, HIV-1; settings: Human immunodeficiency virus 1, NL43, MT4, read-out: EC50 NL4-3 wt (nM)

`CCN(Cc1ccccc1Cl)C[C@H](O)[C@@]12CC[C@]3(C)[C@H](CC[C@@H]4[C@@]5(C)CC[C@H](OC(=O)CC(C)(C)C(=O)O)C(C)(C)[C@@H]5CC[C@]43C)C1=C(C(C)C)C(=O)C2` [Example 49, 4-(((3aR,5aR,5bR,7aR,9S,11aR,11bR,13aS)-3a-((R)-2-((2-chlorobenzyl)(ethyl)amino)-1-hydroxyethyl)-1-isopropyl-5a,5b,8,8,11a-pentamethyl-2-oxo-3,3a,4,5,5a,5b,6,7,7a,8,9,10,11,11a,11b,12,13,13a-octadecahydro-2H-cyclopenta[a]chrysen-9-yl)oxy)-2,2-dimethyl-4-oxobutanoic acid] was tested. Which EC50 did it give?
The EC50 was 21.8 nM.

How did the EC50 turn out when `CC(C)C1=C2[C@H]3CC[C@@H]4[C@@]5(C)CC[C@H](OC(=O)CC(C)(C)C(=O)O)C(C)(C)[C@@H]5CC[C@@]4(C)[C@]3(C)CC[C@@]2([C@H]2CN(C3(c4ncc(Cl)cn4)CC3)C(=O)O2)CC1=O` [Example 60, 4-(((3aR,5aR,5bR,7aR,9S,11aR,11bR,13aS)-3a-((S)-3-(1-(5-chloropyrimidin-2-yl)cyclopropyl)-2-oxooxazolidin-5-yl)-1-isopropyl-5a,5b,8,8,11a-pentamethyl-2-oxo-3,3a,4,5,5a,5b,6,7,7a,8,9,10,11,11a,11b,12,13,13a-octadecahydro-2H-cyclopenta[a]chrysen-9-yl)oxy)-2,2-dimethyl-4-oxobutanoic acid] was run?
The EC50 was 60.2 nM.

With `CC(C)C1=C2[C@H]3CC[C@@H]4[C@@]5(C)CC[C@H](OC(=O)CC(C)(C)C(=O)O)C(C)(C)[C@@H]5CC[C@@]4(C)[C@]3(C)CC[C@@]2([C@@H]2CN(C3(c4ncc(Cl)cn4)CC3)C(=O)O2)CC1=O` [Example 61, 4-(((3aR,5aR,5bR,7aR,9S,11aR,11bR,13aS)-3a-((R)-3-(1-(5-chloropyrimidin-2-yl)cyclopropyl)-2-oxooxazolidin-5-yl)-1-isopropyl-5a,5b,8,8,11a-pentamethyl-2-oxo-3,3a,4,5,5a,5b,6,7,7a,8,9,10,11,11a,11b,12,13,13a-octadecahydro-2H-cyclopenta[a]chrysen-9-yl)oxy)-2,2-dimethyl-4-oxobutanoic acid] as the compound, how does the EC50 read?
Its EC50 is 130 nM.

same assay, conditions: Human immunodeficiency virus 1, NL43; MT4 cells; read-out: EC50 NL4-3 wt

For `CC(=O)N(Cc1cccc(Cl)c1)C[C@@H](O)[C@@]12CC[C@]3(C)[C@H](CC[C@@H]4[C@@]5(C)CC[C@H](OC(=O)CC(C)(C)C(=O)O)C(C)(C)[C@@H]5CC[C@]43C)C1=C(C(C)C)C(=O)C2` [Example 47, 4-(((3aR,5aR,5bR,7aR,9S,11aR,11bR,13aS)-3a-((S)-2-(N-(3-chlorobenzyl)acetamido)-1-hydroxyethyl)-1-isopropyl-5a,5b,8,8,11a-pentamethyl-2-oxo-3,3a,4,5,5a,5b,6,7,7a,8,9,10,11,11a,11b,12,13,13a-octadecahydro-2H-cyclopenta[a]chrysen-9-yl)oxy)-2,2-dimethyl-4-oxobutanoic acid], which EC50 is on record?
The EC50 was 7.7 nM.

With `CC(C)C1=C2[C@H]3CC[C@@H]4[C@@]5(C)CC[C@H](OC(=O)CC(C)(C)C(=O)O)C(C)(C)[C@@H]5CC[C@@]4(C)[C@]3(C)CC[C@@]2([C@@H](O)CN(CCN(C)C)Cc2ccccc2Cl)CC1=O` [Example 50, 4-(((3aR,5aR,5bR,7aR,9S,11aR,11bR,13aS)-3a-((R)-2-((2-chlorobenzyl)(2-(dimethylamino)ethyl)amino)-1-hydroxyethyl)-1-isopropyl-5a,5b,8,8,11a-pentamethyl-2-oxo-3,3a,4,5,5a,5b,6,7,7a,8,9,10,11,11a,11b,12,13,13a-octadecahydro-2H-cyclopenta[a]chrysen-9-yl)oxy)-2,2-dimethyl-4-oxobutanoic acid] as the compound, how does the EC50 read?
Its EC50 is 1.1 nM.

How did the EC50 turn out when `CC(=O)O[C@@H](CNCc1ccccc1)[C@@]12CC[C@]3(C)[C@H](CC[C@@H]4[C@@]5(C)CC[C@H](OC(=O)CC(C)(C)C(=O)O)C(C)(C)[C@@H]5CC[C@]43C)C1=C(C(C)C)C(=O)C2` [Example 52, 4-(((3aR,5aR,5bR,7aR,9S,11aR,11bR,13aS)-3a-((R)-1-Acetoxy-2-(benzylamino)ethyl)-1-isopropyl-5a,5b,8,8,11a-pentamethyl-2-oxo-3,3a,4,5,5a,5b,6,7,7a,8,9,10,11,11a,11b,12,13,13a-octadecahydro-2H-cyclopenta[a]chrysen-9-yl)oxy)-2,2-dimethyl-4-oxobutanoic acid] was run?
Its EC50 is 4.6 nM.

`CC(C)C1=C2[C@H]3CC[C@@H]4[C@@]5(C)CC[C@H](OC(=O)CC(C)(C)C(=O)O)C(C)(C)[C@@H]5CC[C@@]4(C)[C@]3(C)CC[C@@]2([C@@H](O)CN2CCc3ccccc3C2)CC1=O` [Example 63, 4-(((3aR,5aR,5bR,7aR,9S,11aR,11bR,13aS)-3a-((R)-2-(3,4-dihydroisoquinolin-2(1H)-yl)-1-hydroxyethyl)-1-isopropyl-5a,5b,8,8,11a-pentamethyl-2-oxo-3,3a,4,5,5a,5b,6,7,7a,8,9,10,11,11a,11b,12,13,13a-octadecahydro-2H-cyclopenta[a]chrysen-9-yl)oxy)-2,2-dimethyl-4-oxobutanoic acid] was tested. Which EC50 did it give?
Its EC50 is 3.2 nM.

For `CC(C)C1=C2[C@H]3CC[C@@H]4[C@@]5(C)CC[C@H](OC(=O)CC(C)(C)C(=O)O)C(C)(C)[C@@H]5CC[C@@]4(C)[C@]3(C)CC[C@@]2([C@H](O)CN2CCc3ccccc3C2)CC1=O` [Example 64, 4-(((3aR,5aR,5bR,7aR,9S,11aR,11bR,13aS)-3a-((S)-2-(3,4-dihydroisoquinolin-2(1H)-yl)-1-hydroxyethyl)-1-isopropyl-5a,5b,8,8,11a-pentamethyl-2-oxo-3,3a,4,5,5a,5b,6,7,7a,8,9,10,11,11a,11b,12,13,13a-octadecahydro-2H-cyclopenta[a]chrysen-9-yl)oxy)-2,2-dimethyl-4-oxobutanoic acid], which EC50 is on record?
Its EC50 is 7.2 nM.

`CC(C)C1=C2[C@H]3CC[C@@H]4[C@@]5(C)CC[C@H](OC(=O)CC(C)(C)C(=O)O)C(C)(C)[C@@H]5CC[C@@]4(C)[C@]3(C)CC[C@@]2(CCNCc2ccc(Cl)cc2)CC1` [Example 66, 4-(((3aR,5aR,5bR,7aR,9S,11aR,11bR,13aS)-3a-(2-((4-chlorobenzyl)amino)ethyl)-1-isopropyl-5a,5b,8,8,11a-pentamethyl-3,3a,4,5,5a,5b,6,7,7a,8,9,10,11,11a,11b,12,13,13a-octadecahydro-2H-cyclopenta[a]chrysen-9-yl)oxy)-2,2-dimethyl-4-oxobutanoic acid] was tested. Which EC50 did it give?
The EC50 was 9.2 nM.

Which EC50 does the source give for `CC(C)C1=C2[C@H]3CC[C@@H]4[C@@]5(C)CC[C@H](OC(=O)CC(C)(C)C(=O)O)C(C)(C)[C@@H]5CC[C@@]4(C)[C@]3(C)CC[C@@]2([C@H](O)CNCC2CCCCC2)CC1` [Example 67, 4-(((3aS,5aR,5bR,7aR,9S,11aR,11bR,13aS)-3a-((S)-2-((cyclohexylmethyl)amino)-1-hydroxyethyl)-1-isopropyl-5a,5b,8,8,11a-pentamethyl-3,3a,4,5,5a,5b,6,7,7a,8,9,10,11,11a,11b,12,13,13a-octadecahydro-2H-cyclopenta[a]chrysen-9-yl)oxy)-2,2-dimethyl-4-oxobutanoic acid] here?
The EC50 was 136 nM.

For `CC(C)C1=C2[C@H]3CC[C@@H]4[C@@]5(C)CC[C@H](OC(=O)CC(C)(C)C(=O)O)C(C)(C)[C@@H]5CC[C@@]4(C)[C@]3(C)CC[C@@]2([C@H](O)CNC2CCCCC2)CC1=O` [Example 68, 4-(((3aR,5aR,5bR,7aR,9S,11aR,11bR,13aS)-3a-((S)-2-(cyclohexylamino)-1-hydroxyethyl)-1-isopropyl-5a,5b,8,8,11a-pentamethyl-2-oxo-3,3a,4,5,5a,5b,6,7,7a,8,9,10,11,11a,11b,12,13,13a-octadecahydro-2H-cyclopenta[a]chrysen-9-yl)oxy)-2,2-dimethyl-4-oxobutanoic acid], which EC50 is on record?
The EC50 was 10.5 nM.

For `CC(=O)O[C@H](CN(CCN(C)C)Cc1ccc(F)cc1)[C@@]12CC[C@]3(C)[C@H](CC[C@@H]4[C@@]5(C)CC[C@H](OC(=O)CC(C)(C)C(=O)O)C(C)(C)[C@@H]5CC[C@]43C)C1=C(C(C)C)C(=O)C2` [Example 70, 4-(((3aR,5aR,5bR,7aR,9S,11aR,11bR,13aS)-3a-((S)-1-acetoxy-2-((2-(dimethylamino)ethyl)(4-fluorobenzyl)amino)ethyl)-1-isopropyl-5a,5b,8,8,11a-pentamethyl-2-oxo-3,3a,4,5,5a,5b,6,7,7a,8,9,10,11,11a,11b,12,13,13a-octadecahydro-2H-cyclopenta[a]chrysen-9-yl)oxy)-2,2-dimethyl-4-oxobutanoic acid], which EC50 is on record?
The EC50 was 1.6 nM.

How did the EC50 turn out when `CC(=O)O[C@@H](CN(CCN(C)C)Cc1ccc(F)cc1)[C@@]12CC[C@]3(C)[C@H](CC[C@@H]4[C@@]5(C)CC[C@H](OC(=O)CC(C)(C)C(=O)O)C(C)(C)[C@@H]5CC[C@]43C)C1=C(C(C)C)C(=O)C2` [Example 71, 4-(((3aR,5aR,5bR,7aR,9S,11aR,11bR,13aS)-3a-((R)-1-acetoxy-2-((2-(dimethylamino)ethyl)(4-fluorobenzyl)amino)ethyl)-1-isopropyl-5a,5b,8,8,11a-pentamethyl-2-oxo-3,3a,4,5,5a,5b,6,7,7a,8,9,10,11,11a,11b,12,13,13a-octadecahydro-2H-cyclopenta[a]chrysen-9-yl)oxy)-2,2-dimethyl-4-oxobutanoic acid] was run?
The EC50 was 31.2 nM.

With `CC(C)C1=C2[C@H]3CC[C@@H]4[C@@]5(C)CC[C@H](OC(=O)CC(C)(C)CC(=O)O)C(C)(C)[C@@H]5CC[C@@]4(C)[C@]3(C)CC[C@@]2([C@@H](O)CNCc2ccc(Cl)cc2)CC1=O` [Example 72, 5-(((3aR,5aR,5bR,7aR,9S,11aR,11bR,13aS)-3a-((R)-2-((4-chlorobenzyl)amino)-1-hydroxyethyl)-1-isopropyl-5a,5b,8,8,11a-pentamethyl-2-oxo-3,3a,4,5,5a,5b,6,7,7a,8,9,10,11,11a,11b,12,13,13a-octadecahydro-2H-cyclopenta[a]chrysen-9-yl)oxy)-3,3-dimethyl-5-oxopentanoic acid] as the compound, how does the EC50 read?
The EC50 was 5.1 nM.

For `CC(C)C1=C2[C@H]3CC[C@@H]4[C@@]5(C)CC[C@H](OC(=O)CC(C)(C)CC(=O)O)C(C)(C)[C@@H]5CC[C@@]4(C)[C@]3(C)CC[C@@]2([C@H](O)CNCc2ccc(Cl)cc2)CC1=O` [Example 73, 5-(((3aR,5aR,5bR,7aR,9S,11aR,11bR,13aS)-3a-((S)-2-((4-chlorobenzyl)amino)-1-hydroxyethyl)-1-isopropyl-5a,5b,8,8,11a-pentamethyl-2-oxo-3,3a,4,5,5a,5b,6,7,7a,8,9,10,11,11a,11b,12,13,13a-octadecahydro-2H-cyclopenta[a]chrysen-9-yl)oxy)-3,3-dimethyl-5-oxopentanoic acid], which EC50 is on record?
Its EC50 is 31.8 nM.
